Source: ChEMBL document CHEMBL1148995, “Antitumor agents from bohemic acid complex, VI. Schaunardimycin” (J Nat Prod, 1984)

Tests used:
L1210 [1] = test: Antitumor activity against mouse L1210 cells implanted in CDF1 mouse assessed as median survival time at 12.8 mg/kg, ip single dose on day 1; assay type: functional; details: route intraperitoneal
L1210 [2] = test: Antitumor activity against mouse L1210 cells implanted in CDF1 mouse assessed as median survival time at 6.4 mg/kg, ip single dose on day 1; assay type: functional; details: route intraperitoneal
L1210 [3] = test: Antitumor activity against mouse L1210 cells implanted in CDF1 mouse assessed as median survival time at 3.2 mg/kg, ip single dose on day 1; assay type: functional; details: route intraperitoneal
L1210 [4] = test: Antitumor activity against mouse L1210 cells implanted in CDF1 mouse assessed as median survival time at 1.6 mg/kg, ip single dose on day 1; assay type: functional; details: route intraperitoneal
L1210 [5] = test: Antitumor activity against mouse L1210 cells implanted in CDF1 mouse assessed as median survival time at 0.8 mg/kg, ip single dose on day 1; assay type: functional; details: route intraperitoneal
L1210 [6] = test: Antitumor activity against mouse L1210 cells implanted in CDF1 mouse assessed as median survival time at 0.4 mg/kg, ip single dose on day 1; assay type: functional; details: route intraperitoneal
L1210 [7] = test: Antitumor activity against mouse L1210 cells implanted in CDF1 mouse assessed as median survival time at 0.2 mg/kg, ip single dose on day 1; assay type: functional; details: route intraperitoneal
L1210 [8] = test: Antitumor activity against mouse L1210 cells implanted in CDF1 mouse at 12.8 mg/kg, ip single dose on day 1 relative to control; assay type: functional; details: route intraperitoneal
L1210 [9] = test: Antitumor activity against mouse L1210 cells implanted in CDF1 mouse at 6.4 mg/kg, ip single dose on day 1 relative to control; assay type: functional; details: route intraperitoneal
L1210 [10] = test: Antitumor activity against mouse L1210 cells implanted in CDF1 mouse at 3.2 mg/kg, ip single dose on day 1 relative to control; assay type: functional; details: route intraperitoneal
L1210 [11] = test: Antitumor activity against mouse L1210 cells implanted in CDF1 mouse at 1.6 mg/kg, ip single dose on day 1 relative to control; assay type: functional; details: route intraperitoneal
L1210 [12] = test: Antitumor activity against mouse L1210 cells implanted in CDF1 mouse at 0.8 mg/kg, ip single dose on day 1 relative to control; assay type: functional; details: route intraperitoneal
L1210 [13] = test: Antitumor activity against mouse L1210 cells implanted in CDF1 mouse at 0.4 mg/kg, ip single dose on day 1 relative to control; assay type: functional; details: route intraperitoneal
L1210 [14] = test: Antitumor activity against mouse L1210 cells implanted in CDF1 mouse at 0.2 mg/kg, ip single dose on day 1 relative to control; assay type: functional; details: route intraperitoneal
Mus musculus [15] = test: Toxicity in mouse L1210 cells implanted CDF1 mouse assessed as average weight gain at 12.8 mg/kg, ip single dose on day 1; assay type: organism-based; parameters: dose 12.8 mg/kg, route intraperitoneal; details: in vivo
Mus musculus [16] = test: Toxicity in mouse L1210 cells implanted CDF1 mouse assessed as average weight gain at 6.4 mg/kg, ip single dose on day 1; assay type: organism-based; parameters: dose 6.4 mg/kg, route intraperitoneal; details: in vivo
Mus musculus [17] = test: Toxicity in mouse L1210 cells implanted CDF1 mouse assessed as average weight gain at 3.2 mg/kg, ip single dose on day 1; assay type: organism-based; parameters: dose 3.2 mg/kg, route intraperitoneal; details: in vivo
Mus musculus [18] = test: Toxicity in mouse L1210 cells implanted CDF1 mouse assessed as average weight gain at 1.6 mg/kg, ip single dose on day 1; assay type: organism-based; parameters: dose 1.6 mg/kg, route intraperitoneal; details: in vivo
Mus musculus [19] = test: Toxicity in mouse L1210 cells implanted CDF1 mouse assessed as average weight gain at 0.8 mg/kg, ip single dose on day 1; assay type: organism-based; parameters: dose 0.8 mg/kg, route intraperitoneal; details: in vivo
Mus musculus [20] = test: Toxicity in mouse L1210 cells implanted CDF1 mouse assessed as average weight gain at 0.4 mg/kg, ip single dose on day 1; assay type: organism-based; parameters: dose 0.4 mg/kg, route intraperitoneal; details: in vivo
Mus musculus [21] = test: Toxicity in mouse L1210 cells implanted CDF1 mouse assessed as average weight gain at 0.2 mg/kg, ip single dose on day 1; assay type: organism-based; parameters: dose 0.2 mg/kg, route intraperitoneal; details: in vivo
Mus musculus [22] = test: Toxicity in mouse L1210 cells implanted CDF1 mouse assessed as survivors on day 5 at 6.4 mg/kg, ip single dose on day 1; assay type: organism-based; parameters: dose 6.4 mg/kg, route intraperitoneal; details: in vivo
Mus musculus [23] = test: Toxicity in mouse L1210 cells implanted CDF1 mouse assessed as survivors on day 5 at 3.2 mg/kg, ip single dose on day 1; assay type: organism-based; parameters: dose 3.2 mg/kg, route intraperitoneal; details: in vivo
Mus musculus [24] = test: Toxicity in mouse L1210 cells implanted CDF1 mouse assessed as survivors on day 5 at 1.6 mg/kg, ip single dose on day 1; assay type: organism-based; parameters: dose 1.6 mg/kg, route intraperitoneal; details: in vivo
Mus musculus [25] = test: Toxicity in mouse L1210 cells implanted CDF1 mouse assessed as survivors on day 5 at 0.8 mg/kg, ip single dose on day 1; assay type: organism-based; parameters: dose 0.8 mg/kg, route intraperitoneal; details: in vivo
Mus musculus [26] = test: Toxicity in mouse L1210 cells implanted CDF1 mouse assessed as survivors on day 5 at 0.4 mg/kg, ip single dose on day 1; assay type: organism-based; parameters: dose 0.4 mg/kg, route intraperitoneal; details: in vivo
Mus musculus [27] = test: Toxicity in mouse L1210 cells implanted CDF1 mouse assessed as median survival time at 25.6 mg/kg, ip single dose on day 1; assay type: organism-based; parameters: dose 25.6 mg/kg, route intraperitoneal; details: in vivo
L1210 [28] = test: Antitumor activity against mouse L1210 cells implanted in CDF1 mouse at 0.2 mg/kg, ip qd for 1 to 5 days relative to control; assay type: functional; details: route intraperitoneal

In the case of `CC[C@@]1(O)C[C@H](O[C@H]2C[C@H](N(C)C)[C@H](O[C@H]3C[C@H](O)[C@H](O[C@H]4C[C@H](O)[C@H](O)[C@H](C)O4)[C@H](C)O3)[C@H](C)O2)c2c(cc3c(c2O)C(=O)c2c(O)ccc(O)c2C3=O)[C@H]1C(=O)OC` [MARCELLOMYCIN], the MST (L1210 [1]) is reported as 9.5 days, the MST (L1210 [2]) is reported as 8.5 days and the MST (L1210 [3]) is reported as 8.5 days. The MST (L1210 [4]) was 8 days, the MST (L1210 [5]) was 7 days and the MST (L1210 [6]) was 6.5 days. It also gave an MST (L1210 [7]) of 6 days, a T/C (L1210 [8]) of 158% and a T/C (L1210 [9]) of 142%. The T/C (L1210 [10]) was 142%, the T/C (L1210 [11]) was 133% and the T/C (L1210 [12]) was 117%. The T/C (L1210 [13]) was 108%, the T/C (L1210 [14]) was 100% and the Activity (Mus musculus [15]) was -1.9 g. It also gave an Activity (Mus musculus [16]) of -1.7 g, an Activity (Mus musculus [17]) of -0.5 g and a weight gain (Mus musculus [18]) of 1.4 g. It also gave a weight gain (Mus musculus [19]) of 1.8 g, a weight gain (Mus musculus [20]) of 2.8 g and a weight gain (Mus musculus [21]) of 2.7 g. For the same compound, the Activity (Mus musculus [22]) was “Active”, the Activity (Mus musculus [23]) was “Active” and the Activity (Mus musculus [24]) was “Active”. For the same compound, the Activity (Mus musculus [25]) was “Active”, the Activity (Mus musculus [26]) was “Active” and the Activity (Mus musculus [27]) was “Toxic”. The T/C (L1210 [28]) was 117%.
